B1: sterol O-acyltransferase 1 (SOAT1), human, with a carboxy-terminal 6xHis-tag (enzyme, UniProt P35610-1 1-550, looked up)
chain: MVGEEKMSLRNRLSKSRENPEEDEDQRNPAKESLETPSNGRIDIKQLIAKKIKLTAEAEELKPFFMKEVGSHFDDFVTNLIEKSASLDNGGCALTTFSVLEGEKNNHRAKDLRAPPEQGKIFIARRSLLDELLEVDHIRTIYHMFIALLILFILSTLVVDYIDEGRLVLEFSLLSYAFGKFPTVVWTWWIMFLSTFSVPYFLFQHWATGYSKSSHPLIRSLFHGFLFMIFQIGVLGFGPTYVVLAYTLPPASRFIIIFEQIRFVMKAHSFVRENVPRVLNSAKEKSSTVPIPTVNQYLYFLFAPTLIYRDSYPRNPTVRWGYVAMKFAQVFGCFFYVYYIFERLCAPLFRNIKQEPFSARVLVLCVFNSILPGVLILFLTFFAFLHCWLNAFAEMLRFGDRMFYKDWWNSTSYSNYYRTWNVVVHDWLYYYAYKDFLWFFSKRFKSAAMLAVFAVSAVVHEYALAVCLSFFYPVLFVLFMFFGMAFNFIVNDSRKKPIWNVLMWTSLFLGNGVLLCFYSQEWYARQHCPLKNPTFLDYVRPRSWTCRYVF
notes: sterol O-acyltransferase 1 (SOAT1), human; NCBI ID 6646) cloned into pCAG; no removal of the His-tag is described; also called SOAT1 protein

Columns and labels:
[1] = biological target: T1, SOAT1 (Homo sapiens, UniProt P35610); assay: SPR (Biacore T200, CM5 chip, immobilised SOAT1); type: binding; conditions: PBS running buffer with 5% DMSO; 0.0195 nM to 20 μM
T1 sequence (P35610 1-550): B1 chain

[2] = biological target: T1, SOAT1; assay: SPR single-concentration screen (Biacore T200, CM5 chip, immobilised SOAT1); type: binding; conditions: 100 nmol/L compound; PBS with 5% DMSO; positive control
[3] = biological target: the molecule itself; assay: SEC; Superdex 200 10/300 GL in 25 mM Tris pH 8.0, 150 mM NaCl, 0.02% GDN, after nickel affinity purification; fractions checked by SDS-PAGE

Molecule	KD [1]	SPR single-concentration screen (Biacore T200, CM5 chip, immobilised SOAT1) [2]	also measured
Cc1cn(-c2cc(NC(=O)c3ccc(C)c(Nc4nccc(-c5cccnc5)n4)c3)cc(C(F)(F)F)c2)cn1 [nilotinib]	2.02E^−7 M	–	–
Cc1cc(C)c2c(c1)[C@@H](N(Cc1cc(C(F)(F)F)cc(C(F)(F)F)c1)c1nnn(C)n1)CCCN2C[C@H]1CC[C@H](C(=O)O)CC1 [evacetrapib]	3.91 E^−6 M	–	–
CCCCCCCCCCC(C)(C)C(=O)Nc1c(OC)cc(OC)cc1OC [CI-976]	–	including three positive controls: avasimibe, nevanimibe, and CI-976	–
CC(C)c1cc(C(C)C)c(CC(=O)NS(=O)(=O)Oc2c(C(C)C)cccc2C(C)C)c(C(C)C)c1 [avasimibe]	–	including three positive controls: avasimibe, nevanimibe, and CI-976	–
CN(C)CC[C@H](CSc1ccccc1)Nc1ccc(S(=O)(=O)NC(=O)c2ccc(N3CCN(Cc4ccccc4-c4ccc(Cl)cc4)CC3)cc2)cc1[N+](=O)[O-] [ABT-737]	7.19 E^−7 M	–	–
B1	–	–	stoichiometry N [3]: 2

— article PMC9361549, “High-affinity SOAT1 ligands remodeled cholesterol metabolism program to inhibit tumor growth” (BMC Medicine, 2022)
